In paper PMC7894407, “Rapid conversion of isoprene photooxidation products in terrestrial plants” (Communications earth & environment, 2020):

How the values were obtained:
[1] = tested on: T1, poplar AOR (EC 1.3.1.74), alkenal/one oxidoreductase; test: NADPH consumption at A340 nm, NADPH varied, leaf protein extract; format: biochemical, Populus x canescens; details: co-substrate MVK; apparent in vitro, crude leaf extract; 50 mM Tris/HCl, 20 mM MgCl2, 5% glycerol, 2 mM DTT; read-out: Michaelis-Menten constant
T1 construct: gene AORchl; native enzyme in desalted (Sephadex G-25 PD-10) crude leaf protein extract, not purified; AORchl predominantly expressed in leaf, AORcyt-II in stem; active isoenzyme not determined

[2] = tested on: T1, poplar AOR (EC 1.3.1.74), alkenal/one oxidoreductase; test: NADPH consumption at A340 nm, MVK varied, leaf protein extract; format: biochemical, Populus x canescens; details: co-substrate NADPH; apparent in vitro, crude leaf extract; 50 mM Tris/HCl, 20 mM MgCl2, 5% glycerol, 2 mM DTT; read-out: Michaelis-Menten constant

| Km [1] | Structure (SMILES) | Km [2] |
| --- | --- | --- |
| 0.049 mM | NC(=O)C1=CN([C@@H]2O[C@H](COP(=O)(O)OP(=O)(O)OC[C@H]3O[C@@H](n4cnc5c(N)ncnc54)[C@H](OP(=O)(O)O)[C@@H]3O)[C@@H](O)[C@H]2O)C=CC1 [NADPH] | – |
| – | C=CC(C)=O [MVK] | 14.1 mM |
